# Test results as given in patent publication US20120107417A1, “Effective Antitumor Treatments” (PHARMA MAR, S.A., priority 2000, published 2012).
# Like-named read-outs stand apart in the source and are kept apart here.
# Assays:
# [1] = tested on: human rabdomyosarcoma zenograft TE671; test: ET-743/doxorubicin against TE671 xenograft in athymic (nude) mice; type: in vivo
# Method: In vivo: Single iv treatments (ET-743, 0.1 mg/Kg; DOX, 10 mg/Kg) were administered in nude mice when xenograft tumors weighed approximately 100 mg.
# [2] = tested on: murine fibrosarcoma UV2237; test: ET-743/doxorubicin against murine fibrosarcoma UV2237 in mice; type: in vivo; conditions: alone or combination
# UV2237/ADR = test: ET-743/doxorubicin against mdr-resistant subline UV2237/ADR in mice; type: in vivo, murine; conditions: alone or combination
# HT-1080 = test: SRB cytotoxicity assay and Chou-Talalay combination index, HT-1080; type: cell-based, human; conditions: Homo sapiens, HT-1080, 72 h; read-out: IC50 for human soft tissue sarcoma cells, HT-1080
# Method: (§1) Soft tissue sarcoma cell lines, HT-1080 and HS-18 were maintained as monolayer cultures in RP<I-1640 containing 10% fetal bovine serum.
# (§2) Cytotoxicity to drugs was determined by SRB cytotoxicity assay carried out in 96-well microtiter plates as described. Cells were plated in duplicate wells (5000 cells/well) and exposed to drugs at different concentrations. Cells were fixed with 50% TCA solution for 1 h and 0.4% SRB (Sigma) was added to each well. After a 30 min incubation, the plate were washed with 1% acetic acid and read at 570 nm on a Biowhitaker microplate reader 2001. The wells with cells containing no drugs and with medium plus drugs but no cells were used as positive and negative controls, respectively.
# (§3) Cells were seeded into 96-well plates, as described previously. Cells were treated with seven different concentrations of the single drugs or combinations mixture at 1:100 (ET-743: the other drugs) molar ratio. After 72 h exposure, growth inhibition was measured using the SRB assay.
# (§4) Using the same experimental setup described above, we exposed cells to three different concentrations of drugs which represents the IC25, IC50, IC75 of ET-743, DXR, TMTX and paclitaxel, respectively. After 24 hours pre-treatment with ET743 or the combination drug, the second drugs were added to the respective wells for 48 h. Growth inhibition was determined using the SRB assay.)
# (§5) The CI was calculated by the Chou-Talalay equation, which takes into account both potency (Dm or IC50) and the shape of the dose effect curve (the m value). The general equation for the classic isobologram (CI=1) is given by:
# (§6) CI=(D)1/(Dx)1+(D)2/(Dx)2 (A)
# HS-18 = test: SRB cytotoxicity assay and Chou-Talalay combination index, HS-18; type: cell-based, human; conditions: Homo sapiens, 72 h; read-out: IC50 for human soft tissue sarcoma cells, HS-18
# Method: as §1, §2, §3, §4, §5, §6
# HT-1080 cells = test: Cell cycle analysis (propidium iodide, FACS), HT-1080; type: cell-based, human
# Method: (§7) Exponentially growth cells were treated with or without drugs for several hours. Cells were then collected and fixed with ice-cold 70% methanol. DNA was stained with propidium iodide as described previously. Ten thousand stained cells were analyzed on a Becton Dickinson fluorescence-activated cell sorter (FACS).
# HS-18 cells = test: Cell cycle analysis (propidium iodide, FACS), HS-18; type: cell-based, human
# Method: as §7
# TE 671 cells = test: Clonogenic assay ET-743/DOX, TE 671; type: cell-based, human; conditions: 1 hr exposures, isobologram analysis and Combination Index
# Method: In vitro: The effect of each drug or combination after 1 hr exposures was evaluated by clonogenic assay.
# [3] = Biodistribution/PK of DOX with ET-743 in nude mice with tumor xenografts; type: in vivo; conditions: DOX alone vs concomitant treatment with ET-743
# From the text: ET-743 has shown activity in patients with sarcoma refractory to DOX and ifosfamide. In view of its potential as an effective drug, we investigated (1) the preclinical anti-tumor activity of ET-743/DOX combination against the human rhabdomyosarcoma TE 671 and (2) possible interactions between the drugs and their biodistribution in nude mice and tumor xenografts.
# The pharmacokinetic (PK) evaluation of ET-743 given alone or in combination with DOX is underway.
# sc transplanted TE671 = test: ET-743/DDP against sc transplanted TE671; type: in vivo, human; conditions: single drugs at MTD or combination
# ovarian 1 A 9 tumor = test: ET-743/DDP against ovarian 1A9 tumor in vivo; design: species or system human; conditions: single agents
# From the text: The ovarian 1 A 9 tumor that is normally resistant to both ET-743 and DDP as single agents, in combination produced a tumor growth inhibition greater than 50%.
# [4] = tested on: human ovarian carcinoma HOC8; test: ET-743/DDP against orthotopically transplanted HOC8; type: in vivo; conditions: HOC8 orthotopic, peritoneal nodules with ascites; single agents
# liver = conditions: rat
# Method: In the light of the antiinflammatory activity of dex, we investigated its effect on liver damage induced by ET-743 in the rat. Female Wistar rats received a single iv dose of ET-743 (40 μg/kg). Some rats were pretreated with a single oral dose of dex either at 1, 5, 10 or 20 mg/kg 24 h prior to ET-743 treatment. Liver pathology and plasma concentrations of alkaline phophatase (ALP), aspartate aminotransferase (GOT) and total bilirubin (TB) were assessed up to 3 days post ET-743 administration. Conventional histological sections of the livers were examined by light microscopy.
# [5] = single i.v. treatment at tumor approx. 100 mg, drug alone (ET-743 0.1 mg/kg; Dx 10 mg/kg)
# [6] = 24 h after treatment with approximate IC50 dose
# [7] = 72 h after treatment with approximate IC50 dose
compound,measurement,setting,value
"COc1cccc2c1C(=O)c1c(O)c3c(c(O)c1C2=O)C[C@@](O)(C(=O)CO)C[C@@H]3O[C@H]1C[C@H](N)[C@H](O)[C@H](C)O1 [Dx, doxorubicin]",antitumor effect in words,"[1]; TE671 in mice, alone or combination",inactive or marginally active
same,Log 10 Cell Kill (LCK),[1]; [5],0.33
same,tumor weight inhibition (TWI),[1]; [5],50%
same,antitumor effect in words,[2],effective
same,antitumor effect in words,UV2237/ADR,inactive or marginally active
same,IC50,HT-1080,25 nM
same,IC50,HS-18,225 nM
same,% G1,HT-1080 cells; [6],36.1%
same,% S phase,HT-1080 cells; [6],17.5%
same,% G1,HT-1080 cells; [7],46.2%
same,% S phase,HT-1080 cells; [7],5.3%
same,% G2-M,HS-18 cells; [6],25.0%
same,% S phase,HS-18 cells; [6],64.9%
same,% G1,HS-18 cells; [7],1.3%
same,% G2-M,HS-18 cells; [7],34.9%
same,% S phase,HS-18 cells; [7],63.8%
same,anti-tumor activity / interaction in clonogenic assay,TE 671 cells,showed anti-tumor activity
same,PK profile of DOX (plasma and tumor concentrations),[3],not influenced
"N.N.[Cl][Pt][Cl] [DDP, cisplatin]",antitumor effect in words,sc transplanted TE671,partially sensitive
same,sensitivity of tumor to single agent,ovarian 1 A 9 tumor,resistant
same,sensitivity of tumor to single agent,[4],partially sensitive
"C[C@@H]1C[C@H]2[C@@H]3CCC4=CC(=O)C=C[C@]4(C)[C@@]3(F)[C@@H](O)C[C@]2(C)[C@@]1(O)C(=O)CO [dex, dexamethasone]",protection against ET-743 liver damage,liver; dex 1 mg/kg single oral dose 24 h prior to ET-743,little protection
same,protection against ET-743 liver damage,liver; dex 5 mg/kg single oral dose 24 h prior to ET-743,moderately protective
same,"effect on ET-743-induced histopathological changes and elevation of plasma ALP, GOT and TB",liver; dex 10 mg/kg single oral dose 24 h prior to ET-743 40 μg/kg iv,totally abrogated
same,"effect on ET-743-induced histopathological changes and elevation of plasma ALP, GOT and TB",liver; dex 20 mg/kg single oral dose 24 h prior to ET-743 40 μg/kg iv,totally abrogated
